The test system of one series is metastatic breast cancer. The series is described as follows: Metastatic breast cancer patient treated with STS-I with GnRH agonist maintained. Type of series: in vivo, human. As to conditions: daily administration. On the procedure: In a person, a metastatic breast cancer is progressing despite administration of aromatase inhibitor and a GnRH agonist. […] STX64, a STS-I from the coumate family of compound is administered on a daily basis.

Series [1] has as its target T1, sulfatase activity present in eutopic and ectopic endometrium (Homo sapiens, UniProt P08842).
T1 construct: abolish the sulfatase activity present in eutopic and ectopic endometrium; host or cells: eutopic and ectopic endometrium (tissue)
T1 sequence (P08842 22-583): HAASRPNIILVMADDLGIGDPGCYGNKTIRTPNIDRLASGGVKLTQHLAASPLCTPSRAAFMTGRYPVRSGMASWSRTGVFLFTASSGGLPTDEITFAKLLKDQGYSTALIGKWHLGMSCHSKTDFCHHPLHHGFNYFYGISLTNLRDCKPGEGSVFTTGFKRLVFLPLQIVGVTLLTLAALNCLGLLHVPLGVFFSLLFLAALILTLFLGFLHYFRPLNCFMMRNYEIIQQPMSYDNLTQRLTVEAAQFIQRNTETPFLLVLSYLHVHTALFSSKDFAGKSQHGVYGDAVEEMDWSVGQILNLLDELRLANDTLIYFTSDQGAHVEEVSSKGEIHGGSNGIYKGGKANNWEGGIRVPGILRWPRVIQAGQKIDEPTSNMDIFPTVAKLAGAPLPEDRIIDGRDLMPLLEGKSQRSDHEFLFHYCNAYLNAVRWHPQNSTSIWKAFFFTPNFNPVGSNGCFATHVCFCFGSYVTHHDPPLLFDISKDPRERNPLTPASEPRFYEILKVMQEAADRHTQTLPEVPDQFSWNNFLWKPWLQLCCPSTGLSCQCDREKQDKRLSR
As to conditions: in vitro; cited from earlier work.

Series [2] deals with person with peritoneal and ovarian endometriosis. As to the kind of experiment: Endometriosis patient treated with STS-I, then with added progestin. It is filed as in vivo, human. On the procedure:
A nulliparous person was diagnosed with a moderate/severe peritoneal and ovarian endometriosis during a laparoscopy performed for chronic pelvic pain, dyspareunia and infertility. Despite careful debulking of the lesions during the laparoscopy, the symptoms persisted and medical treatment is indicated. A STS-I, E2MATE is administered at 1.0 mg/week.

The test system of series [3] is female Cynomolgus monkeys (Macaca fascicularis). The series is described as follows: 39-week intragastric study in female Cynomolgus monkeys: impact on ovarian cycle and function, microscopic status at necropsy. As to conditions: for Ovary: Absence of corpora lutea (% of animals) / Ovary: Absence of corpora lutea (no. of animals) / Ovary: Cyst (% of animals) / Ovary: Cyst (no. of animals) / Ovary: Increase in growing follicles (% of animals) / Ovary: Increase in growing follicles (no. of animals): 8 animals, after 39 weeks, necropsy; for menstrual cycle pattern: whole treatment period.
Procedure: Three groups of eight female Cynomolgus monkeys (Macaca fascicularis) each were treated intragastrically over a period of approximately 39 weeks at daily doses of 0.2, 0.8 and 2.0 mg/kg of E2MATE using an application volume of 10 mL/kg. A fourth group (control) received an equivalent volume of the vehicle under the same experimental conditions. […] After 39 weeks of treatment, the microscopic status at necropsy was as follows:

Setting [4] is: E2MATE 1.0 mg/week associated with norgestrel 0.1 mg/day.

For `NS(=O)(=O)Oc1ccc2c3c(c(=O)oc2c1)CCCCC3` [STX64], in the series on metastatic breast cancer, the follicular development entry was “no follicular development is recorded”. In series [1], the “sulfatase activity in eutopic and ectopic endometrium” value was “abolish”.

In the case of `C[C@]12CC[C@@H]3c4ccc(OS(N)(=O)=O)cc4CC[C@H]3[C@@H]1CC[C@@H]2O` [E2MATE, Estradiol sulfamate], in series [2] (1.0 mg/week, alone), the endometriosis symptoms result is recorded as “partially relieved”, the “serum estradiol (E2)” value is listed as “fluctuating serum E2 in the hundred of pg range” and the vaginal bleeding result is recorded as “irregular episodes of mild but painful vaginal bleeding”. In series [2] (setting [4]), the “patient's symptoms” value is listed as “further improvement”; the “serum estradiol levels and bleeding episode” value is “reduction”. Also, in series [3] (0.2 mg/kg daily, intragastric, treatment period), the animals became amenorrheic is recorded as 2/8. In series [3] (0.2 mg/kg dose group), the “Ovary: Absence of corpora lutea (% of animals)” value (from here on “Ovary: Absence … (% of animals)”) is listed as “(87.5%)”, the “Ovary: Absence of corpora lutea (no. of animals)” value (from here on “Ovary: Absence … (no. of animals)”) came to 7, the “Ovary: Cyst (% of animals)” value is listed as “(12.5%)” and the “Ovary: Cyst (no. of animals)” value was found to be 1. In series [3] (0.2 mg/kg dose group), the “Ovary: Increase in growing follicles (% of animals)” value (“Ovary: Increase … (% of animals)” below) is reported as “(50%)” and the “Ovary: Increase in growing follicles (no. of animals)” value (from here on “Ovary: Increase … (no. of animals)”) is 4. Also, the menstrual cycle pattern entry in series [3] (0.8 mg/kg daily, intragastric) is “persistent amenorrhea in most animals”. Moreover, in series [3] (0.8 mg/kg dose group), the “Ovary: Absence … (% of animals)” value is given as “(100%)”, the “Ovary: Absence … (no. of animals)” value came to 8, the “Ovary: Cyst (% of animals)” value is recorded as “(12.5%)” and the “Ovary: Cyst (no. of animals)” value came out at 1. For the same compound, in series [3] (0.8 mg/kg dose group), the “Ovary: Increase … (% of animals)” value is on record as “(12.5%)” and the “Ovary: Increase … (no. of animals)” value is given as 1. In series [3] (2.0 mg/kg daily, intragastric), the menstrual cycle pattern entry is “persistent amenorrhea in most animals”. Besides, in series [3] (4.0 mg/kg dose group), the “Ovary: Absence … (% of animals)” value is recorded as “(100%)”, the “Ovary: Absence … (no. of animals)” value was found to be 8, the “Ovary: Cyst (% of animals)” value was “(0%)” and the “Ovary: Cyst (no. of animals)” value is reported as 0. Further, in series [3] (4.0 mg/kg dose group), the “Ovary: Increase … (% of animals)” value was “(50%)” and the “Ovary: Increase … (no. of animals)” value is 4.

Values taken from patent US20100204146A1, “Treatment of Oestrogen Dependant Conditions in Pre-menopausal Women” (PregLem S.A., priority 2007, published 2010).
